The subject of data set [1] is testosterone level in NCI-H295R cells. In words: cells. Format: cell-based. To be noted: Homo sapiens, NCI-H295R, 72 h; for IC50: read-out: Testosterone level in H295R (Elisa) IC50 nM. Here is the method:
The purpose of the experimental study was intended to detect the testosterone level in the NCI-H295R cells by adopting the Enzyme linked immunosorbent assay (ELISA), so as to evaluate the inhibitory effects of the compounds on the testosterone level in the NCI-H295R cells.
The H295R cells were purchased from ATCC, the cell complete medium contained DMEM: F12+ 10% FBS +0.00625 mg/ml insulin +0.00625 mg/ml transferrin+6.25 ng/ml selenium +1.25 mg/ml BSA+0.00535 mg/ml linoleic acid, and the cells were cultured in a 37°C, 5% CO2 incubator. The cells in the exponential growth phase were collected, and cultured in a cytokine-free medium (phenol red 1640-free +1% PS+10% css FBS+1.25 mg/ml BSA +0.00625 mg/ml insulin + 0.00625 mg/ml transferrin+6.25 ng/ml selenium+0.00535 mg/ml linoleic acid) for three days. The cells in the exponential growth phase were collected on the third day. The cell suspension was adjusted with a cytokine-free medium to a corresponding concentration and plated at 60000 cells/well, with the volume being 90 µL/well. Subsequently, 10 µL of the compounds at different concentrations was added and the plate was incubated in a CO2 incubator for three days. After the incubation was completed, according to the operation instructions for testosterone Elisa kit (Beyotime, PT872), 50 µL of the cell culture supernatant was collected from each well and centrifuged at 500 g for 5 min at room temperature and then the resulting supernatant was collected. The samples were added to the corresponding wells at 25 µl/well, and then formulated horseradish peroxidase labelled testosterone was added at 75 µl/well. The mixture was fully mixed for 10 seconds. The reaction wells were sealed with a plate-sealing film (white) and the mixture was incubated at room temperature in the dark for 120 min. The plate was washed three times with a volume of 300 µl per well, and then placed onto thick absorbent paper and dried. Chromogenic reagent TMB solution was added at 100 µl/well. The reaction wells were sealed with a plate-sealing film (white) and the mixture was incubated at room temperature in the dark for 15-20 min. Subsequently, a termination solution was added at 50 µl/well, and after the mixture was fully mixed, the absorbance value OD450 was immediately measured. The absorbance readings were processed using Graphpad Prim 8.0 software and S-shaped concentration curves were plotted and the IC50 values were calculated using a four-parameter non-linear regression model.

Data set [2] is described as follows: Pharmacokinetic test in rats. In kind it is in vivo. To be noted: rat, male SD rats, plasma; for Vd: read-out: Vdss. As to the method:
3.1 Experimental animals: Male SD rats (about 220 g, 6-8 weeks old, 6 rats/compound) were purchased from Chengdu Dossy Experimental Animals Co., Ltd.
3.2 Experimental design: On the day of the experiment, the SD rats were randomly grouped by body weight. […] Table 4 Administration information
Before and after the administration, 0.1 ml of blood was taken from the orbit of the animals under isoflurane anaesthesia and placed in an EDTAK2 centrifuge tube. The blood was centrifuged at 5000 rpm and 4°C for 10 min to collect plasma. […] Before analysis and detection, all samples were stored at -80°C. Table 5 Pharmacokinetic parameters of test compounds in plasma of rats

In data set [3] the test system is pregnenolone level in NCI-H295R cells. In words: cells. To be noted: Homo sapiens, 72 h. In kind it is cell-based. As to the method: 2. The purpose of the experimental study was intended to detect the pregnenolone level in the NCI-H295R cells by adopting the Enzyme linked immunosorbent assay (ELISA), so as to evaluate the inhibitory effects of the compounds on the pregnenolone level in the NCI-H295R cells.
The H295R cells were purchased from ATCC (CRL-2128), the cell complete medium contained DMEM: F12+ 10% FBS +0.00625 mg/ml insulin+0.00625 mg/mL transferrin+6.25 ng/mL selenium+1.25 mg/mL BSA+0.00535 mg/mL linoleic acid, and the cells were cultured in a 37°C, 5% CO2 incubator. The cells in the exponential growth phase were collected, and cultured in a cytokine-free medium (phenol red 1640-free +1% PS+10% css FBS+1.25 mg/mL BSA +0.00625 mg/mL insulin+0.00625 mg/mL transferrin+6.25 ng/mL selenium+0.00535 mg/mL linoleic acid) for three days. The cells in the exponential growth phase were collected on the third day. The cell suspension was adjusted with a cytokine-free medium to a corresponding concentration and plated at 60000 cells/well, with the volume being 90 µL/well. Subsequently, 10 µL of the compounds at different concentrations was added and the plate was incubated in a CO2 incubator for three days. After the incubation was completed, the cell culture supernatant was collected and centrifuged at 2°C-8°C at 800×g for 10 min. The resulting supernatant was collected. Determination was carried out according to the operation instructions for pregnenolone Elisa kit (Antibodies-A73791), and the OD450 signal was read.
2.1 Standard curve plotting. The standard concentration was taken as the abscissa and the OD450 value as the ordinate, the coordinate points of various standards were connected with a smooth line and a curve was fitted according to the four parameter logistic (4-PL) method.
2.2 Sample quantification: The corresponding concentration (CONC) of testosterone/pregnenolone in the sample was calculated using the absorbance value of the sample and the standard curve. According to formula (1), the inhibition rate of the compound at various concentrations was calculated, and S-shaped concentration curves were plotted and the IC50 values (i.e., concentration of the compound at which the inhibition rate was 50%) were calculated using a three parameter non-linear regression model in Graphpad Prim 8.0 software. CONC cpd was the concentration of the treated group, and CONC ctrl was the average concentration value of the solvent control group. Inhibition rate% = 100%−CONCcpd /CONCctrl × 100% [formula] Table 3 Inhibitory effects of compounds on pregnenolone level in NCI-H295R cells

A short description of data set [4]: Pharmacokinetic test in mice. Format: in vivo. To be noted: mouse, male ICR mice, plasma; for Vd: read-out: Vdss. Here is the method: 4.1. Experimental animals: Male ICR mice, 20-25 g, 6 mice/compound, were purchased from Chengdu Dossy Experimental Animals Co., Ltd.
4.2 Experimental design: on the day of the experiment, the ICR mice were randomly grouped according to their body weights. […] Table 6 Administration information
Before and after administration, 0.06 mL of blood was taken from the orbit under isoflurane anaesthesia and placed in an EDTAK2 centrifuge tube. The tube was centrifuged at 5000 rpm at 4°C for 10 min, and plasma was collected. […] Before analysis and detection, all samples were stored at -80°C, and the samples were quantitatively analysed by LC-MS/MS.

Setting [5] is: read-out: Testosterone level in H295R (Elisa) inh.% 100 nM.
The mark [6] stands for this setting: read-out: Testosterone level in H295R (Elisa) inh.% 1000 nM.
Where [7] appears, read: po, intragastric administration (10 mg/kg).
Where [8] appears, read: intravenous administration (2.5 mg/kg).

Where two headings read alike, the source gives them in different places.

A word on the AUC(0-t): it is the area under the concentration-time curve up to a stated or last time point. A high value points to high exposure. One may read the half-life as the time needed for the level to fall by half in the phase considered. Usually clearance stands for the rate of elimination divided by the concentration. Higher therefore signals efficient removal. Usually IC50 stands for the point on the concentration scale where inhibition reaches its midpoint.

As to `O=c1cc(CN2Cc3ccc(C(F)(F)F)cc3C2)occ1/C=C/[C@H]1CC[C@H](NC(=O)[C@H]2C[C@@H](F)C2)CC1` [Compound 100], in data set [1] (setting [5]), the inhibition at 0.1 µM was found to be 70%. The inhibition at 1 µM in data set [1] (setting [6]) turned out to be 85%. In data set [2] (setting [7]), this compound showed an AUC(0-t) of 17500 ng·h/mL and a half-life of 137 min. Also, in data set [2] (setting [8]), the AUC(0-t) turned out to be 4660 ng·h/mL, the clearance came out at 8.86 mL/min/kg, the half-life was 108 min and the Vd was 1.29 L/kg.
With `O=C(N[C@H]1CC[C@H](COc2coc(CN3Cc4ccc(C(F)(F)F)cc4C3)cc2=O)CC1)C1COC1` [Compound 63], in data set [1] (setting [5]), the inhibition at 0.1 µM came out at 64%. Besides, the inhibition at 1 µM in data set [1] (setting [6]) was 75%. In data set [2] (setting [7]), this compound gave an AUC(0-t) of 19100 ng·h/mL and a half-life of 131 min.
For `C/C(=C\[C@H]1CC[C@H](NC(=O)c2cnn(C)c2)CC1)c1coc(CN2Cc3ccc(C(F)(F)F)cc3C2)cc1=O` [Compound 107], the inhibition at 0.1 µM in data set [1] (setting [5]) was determined as 60%. Further, the inhibition at 1 µM in data set [1] (setting [6]) is 78%. For the same compound, in data set [2] (setting [7]), the AUC(0-t) was 22500 ng·h/mL and the half-life is 249 min. In addition, in data set [2] (setting [8]), the AUC(0-t) was 6030 ng·h/mL, the clearance was determined as 6.96 mL/min/kg, the half-life was 203 min and the Vd amounted to 1.55 L/kg.
Take `O=C(OC1CC1)N1CCC(COc2coc(CN3Cc4ccc(OC5CC5)cc4C3)cc2=O)CC1` [Compound 27]: in data set [1], the IC50 amounted to 50.1 nM. Further, the inhibition at 0.1 µM came out at 78% in data set [1] (read-out: Testosterone level in H295R (Elisa) inh.% 100 nM, 100 nM compound, NCI-H295R cells, three days incubation) and 65.5% in data set [3] (read-out: Pregnenolone level in H295R (Elisa) inh.% 100 nM). For the same compound, the inhibition at 1 µM in data set [1] (read-out: Testosterone level in H295R (Elisa) inh.% 1000 nM, 1000 nM compound, NCI-H295R cells, three days incubation) came to 68%; in data set [3] (read-out: Pregnenolone level in H295R (Elisa) inh.% 1000 nM), 67.5%.
Consider `[2H]C([2H])([2H])C(=O)N[C@H]1CC[C@H](COc2coc(CN3Cc4ccc(C(F)(F)F)cc4C3)cc2=O)CC1` [Compound 33], for which, in data set [1], the IC50 stood at 68 nM. In addition, in data set [2] (setting [7]), the AUC(0-t) amounted to 19600 ng·h/mL and the half-life was 122 min. In addition, in data set [4] (setting [7]), the AUC(0-t) was 8430 ng·h/mL and the half-life was 147 min. In data set [4] (setting [8]), the AUC(0-t) was found to be 2090 ng·h/mL, the clearance amounted to 19.9 mL/min/kg, the half-life was 54.5 min and the Vd came to 1.19 L/kg.
Turning to `Cc1nc(C(=O)N[C@H]2CC[C@H](/C=C/c3coc(CN4Cc5ccc(C(F)(F)F)cc5C4)cc3=O)CC2)co1` [Compound 84], in data set [3] (read-out: Pregnenolone level in H295R (Elisa) IC50 nM), the half-maximal inhibitory concentration (IC50) is 121 nM.
As for `CS(=O)(=O)N1CC(OC(=O)N[C@H]2CC[C@H](COc3coc(CN4Cc5ccc(C(F)(F)F)cc5C4)cc3=O)CC2)C1` [Compound 64], the inhibition at 0.1 µM in data set [1] (setting [5]) came out at 73%. The inhibition at 1 µM in data set [1] (setting [6]) was found to be 75%. Moreover, in data set [2] (setting [7]), the AUC(0-t) was 10100 ng·h/mL and the half-life was 175 min. Further, in data set [2] (setting [8]), the AUC(0-t) was determined as 3440 ng·h/mL, the clearance was determined as 12.1 mL/min/kg, the half-life was 159 min and the Vd came out at 2.09 L/kg.
On to `O=c1cc(CN2Cc3ccc(C(F)(F)F)cc3C2)occ1/C=C/[C@H]1CC[C@H](NC(=O)[C@H]2C[C@H](F)C2)CC1` [Compound 101], for which the inhibition at 0.1 µM in data set [1] (setting [5]) is 73%. Moreover, in data set [1] (setting [6]), the inhibition at 1 µM came to 71%. In data set [2] (setting [7]), this compound had an AUC(0-t) of 11600 ng·h/mL and a half-life of 215 min. In data set [2] (setting [8]), the area under the curve AUC(0-t) was determined as 5640 ng·h/mL, the clearance came to 7.45 mL/min/kg, the half-life was 178 min and the Vd was determined as 1.47 L/kg.
On to `O=C(N[C@H]1CC[C@@H](COc2coc(CN3Cc4ccc(C(F)(F)F)cc4C3)cc2=O)CC1)C1COC1` [Compound 54], for which, in data set [1] (setting [5]), the inhibition at 0.1 µM was 53.2%. For the same compound, the inhibition at 1 µM in data set [1] (setting [6]) was determined as 72.2%. In data set [4] (setting [7]), this compound showed an AUC(0-t) of 28100 ng·h/mL and a half-life of 178 min. Also, in data set [4] (setting [8]), the area under the curve AUC(0-t) is 5870 ng·h/mL, the clearance came to 7.19 mL/min/kg, the half-life is 179 min and the Vd was found to be 1.17 L/kg.
Turning to `O=C(CC1CC1)N1CCC(/C=C/c2coc(CN3Cc4ccc(C(F)(F)F)cc4C3)cc2=O)CC1` [Compound 52], in data set [1], the IC50 is 98.2 nM. Moreover, the inhibition at 0.1 µM in data set [1] (setting [5]) was determined as 55.8%. Further, the inhibition at 1 µM in data set [1] (setting [6]) was found to be 74.9%. In data set [2] (setting [7]), this compound showed an AUC(0-t) of 10500 ng·h/mL and a half-life of 133 min. Besides, in data set [2] (setting [8]), the exposure AUC(0-t) is 3300 ng·h/mL, the clearance was found to be 12.3 mL/min/kg, the half-life was 82.2 min and the Vd turned out to be 1.39 L/kg.
For `Cn1cc(C(=O)N[C@H]2CC[C@H](COc3coc(CN4Cc5ccc(C(F)(F)F)cc5C4)cc3=O)CC2)cn1` [Compound 35], the inhibition at 0.1 µM in data set [1] (setting [5]) is 72.8%. Moreover, the inhibition at 1 µM in data set [1] (setting [6]) was 75.5%. In addition, in data set [2] (setting [7]), the AUC(0-t) was 18300 ng·h/mL and the half-life is 170 min. For the same compound, in data set [2] (setting [8]), the AUC(0-t) came out at 9100 ng·h/mL, the clearance was found to be 4.66 mL/min/kg, the half-life is 163 min and the Vd amounted to 0.788 L/kg. In data set [4] (setting [7]), this compound had an AUC(0-t) of 24200 ng·h/mL and a half-life of 171 min. Moreover, in data set [4] (setting [8]), the AUC(0-t) stood at 12500 ng·h/mL, the clearance is 3.34 mL/min/kg, the half-life is 161 min and the Vd stood at 0.557 L/kg.

(Values after EP4692079A1, “CYP11A1 INHIBITOR AND USE THEREOF” (priority 2023, dated 2024).)
